Results: US20050014268A1, “Genetic transformation using a PARP inhibitor” (Bayer BioScience NV, priority 1995, published 2005)

System: Hypocotyl explants of Brassica napus
Experiment: Agrobacterium-mediated transformation of oilseed rape hypocotyl explants with pTHW142 using niacinamide before, during or after infection
Format: cell-based
Description: Hypocotyl explants of Brassica napus were obtained as described in Example 3. Four groups of 200 hypocotyl explants each, were either not treated with niacinamide (indicated in table 4 as NONE), treated with 250 mg/l niacinamide for 1 day prior to infection with Agrobacterium (BEFORE), treated for 2 days during the infection with 250 mg/l niacinamide (DURING), or treated for 1 day after the Agrobacterium infection with 250 mg/l niacinamide (AFTER).
All hypocotyl explants were infected with Agrobacterium tumefaciens strain C58C1Rif carrying T-DNA vector pTHW142 and a helper Ti-plasmid pMP90 (Koncz and Shell, 1986 supra)(or a derivative thereof). Plasmid pTHW142 is a vector carrying a T-DNA comprising the following chimeric genes: • PSSU-bar-3′g7 • p35S-uidA-3′35S • In which uidA is a DNA encoding b-glucuronidase (Jefferson et al., 1986, Proc. Natl. Acad. Sci. USA 83, 8447-8451) and 3′ 35S is the 3′ untranslated end of the cauliflower mosaic virus 35S transcript. The complete sequence of the T-DNA of pTHW142 is presented in SEQ ID No 5.
After the Agrobacterium infection, hypocotyl explants were transferred to selection medium A5, and if appropriate to A5 medium containing 250 mg/ll niacinamide. The hypocotyl explants that were placed on medium containing niacinamide were transferred after 1 day to niacinamide-free selection medium A5. After 5 weeks on selective medium the number of transformed calli was scored. b-glucuronidase expression was verified in the obtained calli using established protocols (Jefferson et al., 1986).

NC(=O)c1cccnc1 [niacinamide]
Transformation frequency (transformed calli, PPT-resistant and GUS-positive, per 100 hypocotyl explants) (AFTER: 250 mg/l niacinamide for 1 day after the infection, scored after 5 weeks): 29% | Transformation frequency (transformed calli, PPT-resistant and GUS-positive, per 100 hypocotyl explants) (BEFORE: 250 mg/l niacinamide for 1 day prior to infection, scored after 5 weeks on selective medium): 32% | Remarks (callus size and appearance) (BEFORE, large: callus diameter of approximately 5 mm): large, green calli | Transformation frequency (transformed calli, PPT-resistant and GUS-positive, per 100 hypocotyl explants) (DURING: 250 mg/l niacinamide for 2 days during the infection, scored after 5 weeks): 16% | Remarks (callus size and appearance) (DURING, very small: callus diameter of approximately 1-2 mm): very small, light green calli | transformation efficiency (niacinamide treatment either before or after the Agrobacterium infection): significantly increase
